According to ChEMBL document CHEMBL6182869, “Tetracationic tetraaryltetranaphtho[2,3]porphyrins for photodynamic inactivation against Staphylococcus aureus biofilm” (Eur J Med Chem, 2025):
The source made the active and inactive calls. The calls are words filed in the database; no cut-off is given here.

Experiments:
Staphylococcus aureus [1] = experiment: Antibacterial activity against Staphylococcus aureus assessed as eradication rate at 8 uM preincubated with compound for 15 mins followed by light irradiation with 730 nm, 40 J/cm2 relative to control; format: functional; details: 0.25 h
[2] = Photophysical property of the compound assessed as singlet oxygen quantum yield by UV-vis spectrophotometric analysis; format: physicochemical
Candida albicans [3] = experiment: Antifungal activity against Candida albicans assessed as fungal growth inhibition measured after 24 hrs by broth microdilution method; format: functional
Staphylococcus aureus [4] = experiment: Antibacterial activity against Staphylococcus aureus preincubated with compound for 15 mins followed by light irradiation with 730 nm, 40 J/cm2 by cell counting analysis; format: functional, organism-based; details: dose 0.5-8 µM
Candida albicans [5] = experiment: Antifungal activity against Candida albicans assessed as fungal growth inhibition preincubated with compound for 15 mins followed by light irradiated with 730 nm, 40 J/cm2 and measured after 24 hrs by broth microdilution method; format: functional; details: light or radiation study, 24.25 h, time 1455 min
[6] = Induction of singlet oxygen quantum yield under 418 nm light irradiation by DPBF based assay; format: functional
Staphylococcus aureus [7] = experiment: Antibiofilm activity against Staphylococcus aureus assessed as disruption of mature biofilm structure at 16 uM preincubated for 15 mins followed by light irradiation with 730 nm, 40 J/cm2 by crystal violet staining based analysis; format: functional, organism-based
Staphylococcus aureus [8] = experiment: Antibacterial activity against Staphylococcus aureus assessed as bacterial growth inhibition preincubated with compound for 15 mins followed by light irradiated with 730 nm, 40 J/cm2 and measured after 24 hrs by broth microdilution method; format: functional; details: light or radiation study, 24.25 h, time 1455 min
HaCaT [9] = experiment: Phototoxicity in human HaCaT cells assessed as cell viability at 16 uM preincubated for 15 mins followed by light irradiation with 730 nm, 40 J/cm2 by MTT assay; format: functional, cell-based
Staphylococcus aureus [10] = experiment: Antibacterial activity against Staphylococcus aureus assessed as bacterial growth inhibition measured after 24 hrs by broth microdilution method; format: functional
[11] = Photophysical property of the compound assessed as fluorescence quantum yield by UV-vis spectrophotometric analysis; format: physicochemical
Staphylococcus aureus [12] = experiment: Antibacterial activity against Staphylococcus aureus assessed as log reduction in bacterial viability at 8 uM preincubated with compound for 15 mins followed by light irradiation with 730 nm, 40 J/cm2 by cell counting analysis relative to control; format: functional; details: 0.25 h
Staphylococcus aureus [13] = experiment: Antibacterial activity against Staphylococcus aureus assessed as reduction in viable bacteria at 0.5 uM preincubated with compound for 15 mins followed by light irradiation with 730 nm, 40 J/cm2 by cell counting analysis relative to control; format: functional; details: 0.25 h
Staphylococcus aureus [14] = experiment: Antibiofilm activity against Staphylococcus aureus assessed as increase in red fluorescence intensity at 16 uM preincubated for 15 mins followed by light irradiation with 730 nm, 40 J/cm2 by SYTO 9/PI staining based CLSM analysis; format: functional, organism-based
Staphylococcus aureus [15] = experiment: Antibiofilm activity against Staphylococcus aureus assessed as disruption of mature biofilm rate at 16 uM preincubated for 15 mins followed by light irradiation with 730 nm, 40 J/cm2 by crystal violet staining based analysis relative to control; format: functional; details: 0.25 h
HaCaT [16] = experiment: Phototoxicity in human HaCaT cells assessed as cell viability at 16 uM preincubated for 15 mins by MTT assay; format: functional, cell-based
Staphylococcus aureus [17] = experiment: Antibiofilm activity against Staphylococcus aureus assessed as reduction in green fluorescence intensity at 16 uM preincubated for 15 mins followed by light irradiation with 730 nm, 40 J/cm2 by SYTO 9/PI staining based CLSM analysis; format: functional, organism-based
Escherichia coli [18] = experiment: Antibacterial activity against Escherichia coli assessed as bacterial growth inhibition preincubated with compound for 15 mins followed by light irradiated with 730 nm, 40 J/cm2 and measured after 24 hrs by broth microdilution method; format: functional; details: light or radiation study, 24.25 h, time 1455 min
Escherichia coli [19] = experiment: Antibacterial activity against Escherichia coli assessed as bacterial growth inhibition measured after 24 hrs by broth microdilution method; format: functional
Staphylococcus aureus [20] = experiment: Bactericidal activity against Staphylococcus aureus at 0.5 to 8 uM; format: functional, organism-based; details: dose 0.5-8 µM
[21] = Dark cytotoxicity against human HaCaT cells assessed as cell viability at 16 uM preincubated for 15 mins by MTT assay; format: toxicity, cell-based; details: read-out: Activity
Staphylococcus aureus [22] = experiment: Antibiofilm activity against Staphylococcus aureus assessed as viable bacteria at 16 uM preincubated for 15 mins followed by light irradiation with 730 nm, 40 J/cm2 by SYTO 9/PI staining based CLSM analysis; format: functional, organism-based
Staphylococcus aureus [23] = experiment: Antibiofilm activity against Staphylococcus aureus at 16 uM preincubated for 15 mins followed by light irradiation with 730 nm, 40 J/cm2 by SYTO 9/PI staining based CLSM analysis; format: functional, organism-based

Row | SMILES | Activity (Staphylococcus aureus [1]) | Activity [2] | MIC (Candida albicans [3]) | Activity (Staphylococcus aureus [4]) | MIC (Candida albicans [5]) | Activity [6] | Activity (Staphylococcus aureus [7]) | MIC (Staphylococcus aureus [8]) | Activity (HaCaT [9]) | MIC (Staphylococcus aureus [10]) | Activity [11] | log(activity) (Staphylococcus aureus [12]) | Activity (Staphylococcus aureus [13]) | Activity (Staphylococcus aureus [14]) | Activity (Staphylococcus aureus [15]) | Activity (HaCaT [16]) | Activity (Staphylococcus aureus [17]) | MIC (Escherichia coli [18]) | MIC (Escherichia coli [19]) | Activity (Staphylococcus aureus [20]) | other results
1 | [Br-].[Br-].[Br-].[Br-].c1cc[n+](CCCOc2ccc(-c3c4nc(c(-c5ccc(OCCC[n+]6ccccc6)cc5)c5[nH]c(c(-c6ccc(OCCC[n+]7ccccc7)cc6)c6nc(c(-c7ccc(OCCC[n+]8ccccc8)cc7)c7[nH]c3c3cc8ccccc8cc73)-c3cc7ccccc7cc3-6)c3cc6ccccc6cc53)-c3cc5ccccc5cc3-4)cc2)cc1 | >99.9% | 0.45 | 64 µM | Dose-dependent-effect | 32 µM | Active | Active | 8 µM | inactive | 32 µM | 0.07 | 3 | >75% | Active | 77.5% | inactive | Active | > 64 µM | > 64 µM | Active | viability at 0.25 h, 16 µM [21]: > 80%
2 | C[N+](C)(C)CCCOc1ccc(-c2c3nc(c(-c4ccc(OCCC[N+](C)(C)C)cc4)c4[nH]c(c(-c5ccc(OCCC[N+](C)(C)C)cc5)c5nc(c(-c6ccc(OCCC[N+](C)(C)C)cc6)c6[nH]c2c2cc7ccccc7cc62)-c2cc6ccccc6cc2-5)c2cc5ccccc5cc42)-c2cc4ccccc4cc2-3)cc1.[Br-].[Br-].[Br-].[Br-] | >99.9% | 0.37 | 64 µM | Dose-dependent-effect | 64 µM | Active | Active | 8 µM | inactive | 32 µM | 0.07 | 3 | >75% | Active | 72.6% | inactive | Active | > 64 µM | > 64 µM | Active | viability at 0.25 h, 16 µM [21]: > 80%
3 | CC[N+](C)(CC)CCCOc1ccc(-c2c3nc(c(-c4ccc(OCCC[N+](C)(CC)CC)cc4)c4[nH]c(c(-c5ccc(OCCC[N+](C)(CC)CC)cc5)c5nc(c(-c6ccc(OCCC[N+](C)(CC)CC)cc6)c6[nH]c2c2cc7ccccc7cc62)-c2cc6ccccc6cc2-5)c2cc5ccccc5cc42)-c2cc4ccccc4cc2-3)cc1.[Br-].[Br-].[Br-].[Br-] | >99.9% | 0.51 | 64 µM | Dose-dependent-effect | 64 µM | Active | Active | 8 µM | inactive | 16 µM | 0.06 | 3 | >75% | Active | 80.1% | inactive | Active | > 64 µM | > 64 µM | Active | Activity (Staphylococcus aureus [22]): Active; Activity (Staphylococcus aureus [23]): Active; viability at 0.25 h, 16 µM [21]: > 80%
4 | [Br-].[Br-].[Br-].[Br-].c1cc[n+](CCCCOc2ccc(-c3c4nc(c(-c5ccc(OCCCC[n+]6ccccc6)cc5)c5[nH]c(c(-c6ccc(OCCCC[n+]7ccccc7)cc6)c6nc(c(-c7ccc(OCCCC[n+]8ccccc8)cc7)c7[nH]c3c3cc8ccccc8cc73)-c3cc7ccccc7cc3-6)c3cc6ccccc6cc53)-c3cc5ccccc5cc3-4)cc2)cc1 | – | 0.45 | 64 µM | – | 32 µM | Active | – | 32 µM | – | 64 µM | 0.08 | – | – | – | – | – | – | > 64 µM | > 64 µM | – | –
5 | [Br-].[Br-].[Br-].[Br-].c1cc[n+](CCCCCCOc2ccc(-c3c4nc(c(-c5ccc(OCCCCCC[n+]6ccccc6)cc5)c5[nH]c(c(-c6ccc(OCCCCCC[n+]7ccccc7)cc6)c6nc(c(-c7ccc(OCCCCCC[n+]8ccccc8)cc7)c7[nH]c3c3cc8ccccc8cc73)-c3cc7ccccc7cc3-6)c3cc6ccccc6cc53)-c3cc5ccccc5cc3-4)cc2)cc1 | – | 0.52 | 64 µM | – | 64 µM | Active | – | 64 µM | – | 64 µM | 0.07 | – | – | – | – | – | – | > 64 µM | > 64 µM | – | –
6 | CC[N+](C)(CC)CCCCOc1ccc(-c2c3nc(c(-c4ccc(OCCCC[N+](C)(CC)CC)cc4)c4[nH]c(c(-c5ccc(OCCCC[N+](C)(CC)CC)cc5)c5nc(c(-c6ccc(OCCCC[N+](C)(CC)CC)cc6)c6[nH]c2c2cc7ccccc7cc62)-c2cc6ccccc6cc2-5)c2cc5ccccc5cc42)-c2cc4ccccc4cc2-3)cc1.[Br-].[Br-].[Br-].[Br-] | – | 0.56 | 64 µM | – | 64 µM | Active | – | 8 µM | – | 16 µM | 0.07 | – | – | – | – | – | – | > 64 µM | > 64 µM | – | –
